Source: article PMC6208908, “Field template-based design and biological evaluation of new sphingosine kinase 1 inhibitors” (Breast Cancer Research and Treatment, 2018)

Legend:
[1] = molecular target: T1, endogenous SK1 in MDA-MB-231 cells (Homo sapiens, UniProt Q9NYA1); experiment: SK1 activity in lysates of treated MDA-MB-231 cells; format: cell-based; conditions: 6 h
T1 construct: We treated MDA-MB-231 cells with 1 µM of compounds SK-A – SK-F and SKI-II as the positive control for 6 h; endogenous in cells; host or cells: MDA-MB-231
T1 sequence (Q9NYA1 whole entry): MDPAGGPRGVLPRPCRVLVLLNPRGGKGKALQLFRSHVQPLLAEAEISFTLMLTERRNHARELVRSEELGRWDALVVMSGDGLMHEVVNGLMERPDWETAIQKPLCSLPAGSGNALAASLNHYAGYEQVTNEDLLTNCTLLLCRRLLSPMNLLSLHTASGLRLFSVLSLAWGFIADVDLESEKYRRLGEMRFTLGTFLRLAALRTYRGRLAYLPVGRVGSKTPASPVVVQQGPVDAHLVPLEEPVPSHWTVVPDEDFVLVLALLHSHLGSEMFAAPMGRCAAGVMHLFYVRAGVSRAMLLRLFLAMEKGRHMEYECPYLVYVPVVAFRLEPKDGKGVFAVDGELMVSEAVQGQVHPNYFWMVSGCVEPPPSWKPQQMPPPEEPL
Method: After incubation, cells were washed with ice-cold phosphate-buffered saline (PBS) and harvested.
SK assay was performed using radiolabeling as previously described, in conditions favouring SK1 or SK2 activity as required.
Fig. 2 Inhibition of sphingosine kinase 1 in cell-free extract and in vitro. a 1 µM of compounds SK-A to SK-F and SKI-II (commercial inhibitor of SK used as a positive control) were incubated in the presence of recombinant SK1 extract (in excess), 1 µM of ATP, and 1 µM exogenous sphingosine for 1 h. b MDA-MB-231 cells were incubated with 1 µM of compounds SK-A to SK-F and SKI-II for 6 h. SK1 activity was measured as described in materials and methods. Columns, means of three independent experiments normalised to vehicle; bars, SEM. (ns, non-significant; *p < 0.05; **p < 0.01)
Reportedly, among human tumour cell lines, the breast cancer cell line MDA-MB-231 expresses high levels of SK activity. We treated MDA-MB-231 cells with 1 µM of compounds SK-A – SK-F and SKI-II as the positive control for 6 h and analysed SK1 activity in the cell lysates using SK1 activity assay.

[2] = system: 4T1 breast cancer allografts; experiment: 4T1 breast cancer allograft, tumour volume; format: in vivo, BALB/c nude mice; conditions: 5 mg/kg each drug i.p. twice a week for 2 weeks; control 468 mm^3
Method: Breast cancer allografts were established in 6–8-week-old BALB/c nude mice by injection of 10^6 4T1 cells into their mammary pad. Two weeks after implantation, mice were randomised into treatment groups (n = 6/group) and treated twice a week for 2 weeks with intraperitoneal injections of dimethyl sulfoxide (DMSO), 5 mg/kg DTX, 5 mg/kg SK-F, 5 mg/kg DTX + 5 mg/kg SK-F. One day after the last treatment, all mice were euthanized and blood was collected. Tumour long and short radii were measured using calipers and tumour volume (v) was calculated using the formula v = 4/3 πab^2 (a – long radius, b – short radius). Mice and individual organs were weighed and primary tumours were then processed for analysis of SK1 activity as described above. Full blood count and liver function test analysis was done in the Hammersmith hospital biochemical lab. […]
Fig. 5 Effect of compound SK-F on breast tumour growth and SK1 activity. […] Two weeks after implantation, mice were randomised into treatment groups (n = 6/group) and treated twice a week for 2 weeks with intraperitoneal injections of: DMSO, 5 mg/kg DTX, 5 mg/kg SK-F, 5 mg/kg DTX + 5 mg/kg SK-F. a Tumour volume in the different treatment groups of 4T1 breast cancer implanted in mouse mammary fat pad. b SK1 activity in tumours was measured using radiolabelling. […]

[3] = Liver function tests in treated mice; format: in vivo, BALB/c nude mice; conditions: 5 mg/kg each drug i.p. twice a week for 2 weeks, compared with DTX
Method: Breast cancer allografts were established in 6–8-week-old BALB/c nude mice by injection of 10^6 4T1 cells into their mammary pad. Two weeks after implantation, mice were randomised into treatment groups (n = 6/group) and treated twice a week for 2 weeks with intraperitoneal injections of dimethyl sulfoxide (DMSO), 5 mg/kg DTX, 5 mg/kg SK-F, 5 mg/kg DTX + 5 mg/kg SK-F. One day after the last treatment, all mice were euthanized and blood was collected. Tumour long and short radii were measured using calipers and tumour volume (v) was calculated using the formula v = 4/3 πab^2 (a – long radius, b – short radius). Mice and individual organs were weighed and primary tumours were then processed for analysis of SK1 activity as described above. Full blood count and liver function test analysis was done in the Hammersmith hospital biochemical lab.
Fig. 6 Liver function tests of mice treated with SK-F and docetaxel (DTX). Breast cancer allografts were established in BALB/c nude mice by injection of 4T1 cells into their mammary pad. Two weeks after implantation, mice were randomised into treatment groups (n = 6/group) and treated twice a week for two weeks with intraperitoneal injections of: DMSO, 5 mg/kg DTX, 5 mg/kg SK-F, 5 mg/kg DTX + 5 mg/kg SK-F. a Alanine transaminases (ALT). b Bilirubin. c Aspartate transaminase (AST). d Albumin. e Alkaline phosphatase (ALP). f Total protein. Columns, mean of n = 6 animals normalised to control; bars, SEM. (*p < 0.05; **p < 0.01)

For CCCCCCCCc1ccc(NC(=O)c2ccccc2)cc1 [SK-F], the “SK1 activity in cells versus vehicle” value ([1]; 1 µM) was “significantly decreased”, the inhibition at 1 µM ([1]; read-out: inhibition of SK1 activity in vitro) was 48.2% and the “tumour volume at the end of the study” value [2] was 371 mm^3. The “liver function test toxicity profile” value [3] was “milder toxicity profile”.
